Laboratory results from patent US20040006103A1, “Use of chloroquine, hydroxychloroquine and 4 amino-quinolinic derivatives to obtain a drug for the anti retroviral therapy, active towards HIV sensitive strains and towards HIV strains which are resistant to both nucleosidic and non-nucleosidic reverse transcriptase inhibitors and to proteases …” (VALPHARMA S.A., priority 2002, published 2004).
Where two headings read alike, the source gives them in different places.

Tests used:
[1] = system: HIV clinical isolated, characterised by mutations in the RT gene inducing geno-phenotypic resistance to AZT; test: p24 production susceptibility test (ACTG protocol), Table 1; type: cell-based, HIV-1; details: for EC50: Human immunodeficiency virus 1, PBMC; for S.I. HCQ: I.C.50/E.C.50; for Fen. HCQ (fold): ratio to HIV-IIIB
Source text: (§1) For the phenotype of the nucleosidic, non-nucleosidic and proteases inhibitors was utilised a method which consider the use of human PBMC and the protocol standardised by the AIDS Clinical Trials Group, after verifying the genotype by sequence analysis.
(§2) In order to assay in vitro the susceptibility to chloroquine and hydroxychloroquine of the viral strains, it was used the protocol of the ACTG which is characterised by the measure, of the production of antigen p24 in strongly infected cells.
(§3) The susceptibility of the viral strains to chemotherapics was determined in cell cultures, prepared in 96 wells microplates, using, for the infection, 0.1 MOI.
(§4) The supernatant of the infected cultures (either in absence or in presence of different concentrations of chemotherapic) were tested for the production of p24 after 7 days, using an ELISA test which is commercially available.
(§5) The concentrations of chloroquine and hydroxychloroquine tested ranged from 0.5 to 15 uM. At the same time non-infected cells were incubated with concentrations of chloroquine and hydroxychloroquine ranging from 0 to 50 uM to evaluate the toxicity of the compound.
(§6) After 4 day from the infection, half the cellular medium was replaced with a medium containing the corresponding dilution of chloroquine and hydroxychloroquine. The percentage of inhibition of the HIV replication, induced by chloroquine and hydroxychloroquine, was determined, after 7 day from the infection, comparing the levels of p24 of this cultures and that of the control, infected and not treated with chloroquine and hydroxychloroquine.
(§7) Therefore, the E.C.50 of chloroquine and hydroxychloroquine expresses the concentration of chemotherapic that inhibits the 50% of production of p24 and the values were calculated using linear and non linear regression analysis (the significativity for the non linear regression was R^2>0.95).
(§8) In the same experimental conditions and in the same day, but with similar concentrations of chloroquine and hydroxychloroquine, it was evaluated the vitality of the infect cell cultures, and this was expressed as I.C.50.
(§9) I.C.50 (Inhibitory Concentration) indicates the concentration of the chemotherapic agent inhibiting the vitality of the cell cultures at a rate of 50%, when there is not infection.

[2] = system: HIV clinical isolated, characterised by mutations in the RT gene inducing geno-phenotypic resistance to ddI; test: p24 production susceptibility test (ACTG protocol), Table 2; type: cell-based, HIV-1; details: for EC50: Human immunodeficiency virus 1, PBMC, read-out: E.C.50 HCQ; for S.I. HCQ / Fen HCQ (fold): PBMC; for S.I. HCQ: I.C.50/E.C.50; for Fen HCQ (fold): ratio to HIV-IIIB
Source text: as §1, §2, §3, §4, §5, §6, §7, §8, §9

[3] = system: HIV-1 clinical isolated, characterised by mutations in the RT gene inducing geno-phenotypic resistance to ABC; test: p24 production susceptibility test (ACTG protocol), Table 5; type: cell-based; details: for EC50: Human immunodeficiency virus 1, PBMC, read-out: E.C.50 HCQ; for S.I. HCQ / Fen. HCQ (fold): PBMC; for S.I. HCQ: I.C.50/E.C.50; for Fen. HCQ (fold): ratio to HIV-IIIB
Source text: as §1, §2, §3, §4, §5, §6, §7, §8, §9

[4] = system: HIV-1 strains geno-phenotypically resistant to NVP; test: p24 production susceptibility test, Table 6, MT-2 cells; type: cell-based; details: for EC50: Human immunodeficiency virus 1, MT2, MT-2, read-out: E.C.50 HCQ; for S.I. HCQ / Fen. HCQ (fold): MT-2; for S.I. HCQ: I.C.50/E.C.50; for Fen. HCQ (fold): ratio to HIV-IIIB
Source text: as §1, §2, §3, §4, §5, §6, §7, §8, §9

[5] = system: HIV-1 clinical isolated, characterised by mutations on the protease gene inducing geno-phenotypic resistance to NFV; test: p24 production susceptibility test (ACTG protocol), Table 10, PBMC; type: cell-based; details: for S.I. HCQ: I.C.50/E.C.50; for Fen. HCQ (fold): ratio to HIV-IIIB; for EC50: Human immunodeficiency virus 1, PBMC, read-out: E.C.50 HCQ
Source text: as §1, §2, §3, §4, §5, §6, §7, §8, §9

[6] = system: viruses resistant to both reverse transcriptase and protease inhibitors; test: p24 production susceptibility test, summary for resistant viruses; type: cell-based, HIV-1; details: Human immunodeficiency virus 1, range
Description: as §2, §3
The supernatant of the infected cultures (either in absence or in presence of different concentrations of chemotherapic) were tested for the production of p24 after 7 days, using an ELISA test which is commercially available. […]
as §6, §7

[7] = PBMC, Gen. D67N K70R T215F K219Q
[8] = PBMC, Gen. D 67 Ns K 70N T215F K219Q
[9] = PBMC, Gen. M41I M184V L210W R221K T215Y
[10] = PBMC, Gen. M41L D67N K70RM 184V T215F
[11] = PBMC, Gen. M41LD 76N K70R T215Y
[12] = Gen M4IL M184V L210W R211KL 214F T215Y
[13] = Gen. K65R S68G F77L Y115F Q151M M184V
[14] = Gen. M41L D67N M184V L210W T215Y

CCN(CCO)CCCC(C)Nc1ccnc2cc(Cl)ccc12 (stereo not shown) [HCQ, hydroxychloroquine]
EC50 ([1]; PBMC, Gen. D67N K70R T215F K219Q, read-out: E:C.50 HCQ): 2 µM
EC50 ([1]; PBMC, Gen. D 67 Ns K 70N T215F K219Q, read-out: E:C.50 HCQ): 2.5 µM
EC50 ([1]; PBMC, Gen. K70R T215F K219Q, read-out: E:C.50 HCQ): 2 µM
EC50 ([1]; PBMC, Gen. M41I M184V L210W R221K T215Y, read-out: E:C.50 HCQ): 1 µM
EC50 ([1]; PBMC, Gen. M41I T215Y, read-out: E:C.50 HCQ): 2.5 µM
EC50 ([1]; PBMC, Gen. M41L D67N K70RM 184V T215F, read-out: E:C.50 HCQ): 2.5 µM
EC50 ([1]; read-out: E:C.50 HCQ (uM), PBMC, Gen. M41LD 76N K70R T215Y): 2.8 µM
S.I. HCQ [1, 7]: 4
Fen. HCQ (fold) [1, 7]: 1.1X fold
S.I. HCQ [1, 8]: 3.6
Fen. HCQ (fold) [1, 8]: 1.6X fold
S.I. HCQ ([1]; PBMC, Gen. K70R T215F K219Q): 5
Fen. HCQ (fold) ([1]; PBMC, Gen. K70R T215F K219Q): 1.1X fold
S.I. HCQ [1, 9]: 7
Fen. HCQ (fold) [1, 9]: 0.5X fold
S.I. HCQ ([1]; PBMC, Gen. M41I T215Y): 4.5
Fen. HCQ (fold) ([1]; PBMC, Gen. M41I T215Y): 1.3X fold
S.I. HCQ [1, 10]: 3.6
Fen. HCQ (fold) [1, 10]: 1.3X fold
S.I. HCQ [1, 11]: 3.4
Fen. HCQ (fold) [1, 11]: 1.5X fold
EC50 ([2]; Gen D67N K70R M184V T215Y): 2.5 µM
EC50 ([2]; Gen D67N K70R T215F K70R): 2.5 µM
EC50 ([2]; Gen K70R T215F K219Q): 2 µM
EC50 [2, 12]: 2.5 µM
EC50 ([2]; Gen M41I T215F): 2.5 µM
EC50 ([2]; Gen M41L D67N K70R M184V T215Y): 2.5 µM
EC50 ([2]; Gen M41L D67N K70R T215Y): 2.8 µM
S.I. HCQ ([2]; Gen D67N K70R M184V T215Y): 4.5
Fen HCQ (fold) ([2]; Gen D67N K70R M184V T215Y): 1.3X fold
S.I. HCQ ([2]; Gen D67N K70R T215F K70R): 3.4
Fen HCQ (fold) ([2]; Gen D67N K70R T215F K70R): 1.1X fold
S.I. HCQ ([2]; Gen K70R T215F K219Q): 5
Fen HCQ (fold) ([2]; Gen K70R T215F K219Q): 0.8X fold
S.I. HCQ [2, 12]: 4
Fen HCQ (fold) [2, 12]: 1.3X fold
S.I. HCQ ([2]; Gen M41I T215F): 4.5
Fen HCQ (fold) ([2]; Gen M41I T215F): 1.3X fold
S.I. HCQ ([2]; Gen M41L D67N K70R M184V T215Y): 3.6
Fen HCQ (fold) ([2]; Gen M41L D67N K70R M184V T215Y): 1.3X fold
S.I. HCQ ([2]; Gen M41L D67N K70R T215Y): 3.4
Fen HCQ (fold) ([2]; Gen M41L D67N K70R T215Y): 1.1X fold
EC50 ([3]; Gen. K65R L74V M184V): 1.5 µM
EC50 [3, 13]: 2.2 µM
EC50 ([3]; Gen. L74V M184F): 2.2 µM
EC50 ([3]; Gen. L74V Y115F M184V): 2.5 µM
EC50 [3, 14]: 1.8 µM
S.I. HCQ ([3]; Gen. K65R L74V M184V): 6
Fen. HCQ (fold) ([3]; Gen. K65R L74V M184V): 1X fold
S.I. HCQ [3, 13]: 4
Fen. HCQ (fold) [3, 13]: 1.4X fold
S.I. HCQ ([3]; Gen. L74V M184F): 4
Fen. HCQ (fold) ([3]; Gen. L74V M184F): 1.4X fold
S.I. HCQ ([3]; Gen. L74V Y115F M184V): 3.6
Fen. HCQ (fold) ([3]; Gen. L74V Y115F M184V): 1.3X fold
S.I. HCQ [3, 14]: 5.5
Fen. HCQ (fold) [3, 14]: 1.2X fold
EC50 ([4]; Gen. G190E): 3.5 µM
EC50 ([4]; Gen. K103N): 2.8 µM
EC50 ([4]; Gen. V106A): 3.2 µM
EC50 ([4]; Gen. Y181C): 3.2 µM
S.I. HCQ ([4]; Gen. G190E): 6
Fen. HCQ (fold) ([4]; Gen. G190E): 1.9X fold
S.I. HCQ ([4]; Gen. K103N): 7.8
Fen. HCQ (fold) ([4]; Gen. K103N): 1.5X fold
S.I. HCQ ([4]; Gen. V106A): 6.2
Fen. HCQ (fold) ([4]; Gen. V106A): 1.7X fold
S.I. HCQ ([4]; Gen. Y181C): 6.1
Fen. HCQ (fold) ([4]; Gen. Y181C): 1.7X fold
S.I. HCQ ([5]; Gen. D30N A71V): 4
Fen. HCQ (fold) ([5]; Gen. D30N A71V): 1.2X fold
S.I. HCQ ([5]; Gen. D30N M46V A71V): 5.5
Fen. HCQ (fold) ([5]; Gen. D30N M46V A71V): 1X fold
S.I. HCQ ([5]; Gen. G48V V92A): 3.3
Fen. HCQ (fold) ([5]; Gen. G48V V92A): 1.6X fold
S.I. HCQ ([5]; Gen. V82F L90M): 3.6
Fen. HCQ (fold) ([5]; Gen. V82F L90M): 1.3X fold
EC50 ([5]; Gen. D30N A71V): 2.2 µM
EC50 ([5]; Gen. D30N M46V A71V): 1.8 µM
EC50 ([5]; Gen. G48V V92A): 3 µM
EC50 ([5]; Gen. V82F L90M): 2.5 µM
EC50 [6]: 1.5 to 3.5 µM
